In US20230348362A1, “LIPID COMPOUNDS AND LIPID NANOPARTICLE COMPOSITIONS” (Suzhou Abogen Biosciences Co., Ltd., priority 2021, published 2023):
Read-outs that look alike come from different tables or passages of the source.

What was measured:
[1] = Apparent pKa of LNP formulations, TNS fluorescence assay; type: physicochemical; conditions: LNP cationic lipid/DSPC/cholesterol/DMG-PEG 50/10/38.5/1.5 mol %
Procedure, shortened: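 LNPs (cationic lipid/DSPC/cholesterol/DMG-PEG 50/10/38.5/1.5 mol %) diluted to 0.1 mg/mL total lipid in citrate/phosphate/borate/NaCl buffers spanning pH 3–9 with TNS. Fluorescence (ex 325, em 435 nm) read at room temperature; pKa taken as the pH at half-maximal intensity from sigmoidal fit.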

[2] = Lipid nanoparticle size and polydispersity by dynamic light scattering; type: physicochemical; conditions: LNP of lipid/DSPC/cholesterol/PEG-lipid 50:10:38.5:1.5 encapsulating hEPO mRNA
Procedure, shortened: (§1)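 LNPs made from ionizable lipid/DSPC/cholesterol/PEG-lipid (50:10:38.5:1.5) and mRNA in citrate pH 4 by microfluidic mixing, lipid:mRNA about 10:1–30:1 w/w, then dialysed into DPBS and filtered. Size and PDI measured by DLS in backscatter mode; encapsulation efficiency measured by RiboGreen assay.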

[3] = Encapsulation efficiency of lipid nanoparticles, Quant-it Ribogreen RNA assay; type: physicochemical; conditions: LNP of lipid/DSPC/cholesterol/PEG-lipid 50:10:38.5:1.5 encapsulating hEPO mRNA
Procedure, shortened: as §1

[4] = Lipid clearance study: lipid remaining in liver tissue by LC-MS/MS; conditions: ICR female mice, 0.5 mg/kg i.v. bolus dose mRNA
Description: (§2) LNPs were injected into mice via the tail vein (ICR female, IV, 0.5 mg mRNA/kg), then mice were anesthetized under carbon dioxide at different time (e.g., 6 h, 24 h, and 48 h) after administration and sacrificed via cardiac puncture. Liver tissue were collected immediately, and then washed by ice-cold saline. Liver samples were weighed and homogenized in ice water bath by adding pre-chilled 20% methanol-water (v/v) at 2˜8° C. with the ratio of 1:5 (w/v). The homogenized tissue samples were stored in −90˜−60° C. freezer prior to analysis.
(§3) Sample Processing. All liver tissue homogenate samples were allowed to thaw at room temperature. An aliquot of 50 μL of sample was added with 50 μL MgCl2 (2M), then added with ACN which contains of Verapamil, 5 ng·mL^−1 and Glibenclamide, 50 ng·mL^−1 and Diclofenac, 200 ng·mL^1 and Tolbutamide, 200 ng·mL^1 for protein precipitation, then centrifuged at 13000 rpm for 8 min. Then 100 μL of supernatant was added with 100 μL water, then vortexed well. An aliquot of 5 μL of the mixture was injected into the LC-MS/MS system.

[5] = mouse, in vivo, iv, 0.5 mg/kg
Description: as §2, §3

Row | Apparent Pka [1] | polydispersity [2] | size (nm) [2] [nm] | Encapsulation Efficiency [3] [%] | % Dose Remaining in Liver Tissue ([4]; 6 h) [%] | % Dose Remaining in Liver Tissue ([4]; 24 h) [%] | % Dose Remaining in Liver Tissue ([4]; 48 h) [%] | % Dose Remaining in Liver Tissue ([5]; 6 h) [%] | % Dose Remaining in Liver Tissue ([5]; 24 h) [%] | % Dose Remaining in Liver Tissue ([5]; 48 h) [%] | SMILES
1 | 6.489 | 0.091 | 65.56 | 89.25 | 1.34 | 0.00 | 0.00 |  |  |  | CCCCCCCC(=O)OCC(CCCCN(CCO)CCN(CCCCC(COC(=O)CCCCCCC)COC(=O)CCCCCCC)C1CCC1)COC(=O)CCCCCCC [Compound 71]
2 | 6.361 | 0.042 | 81.93 | 92.3 | 94.55 | 67.66 | 24.38 |  |  |  | CCCCCCCCCCCOC(=O)CCCCCN(CCN(CCO)CCCCCC(=O)OCC(CCCCCCCC)CCCCCCCC)C1CCCCC1 [Compound 21]
3 |  | 0.135 | 87.73 | 83.64 | 22.45 | 16.39 | 14.08 |  |  |  | CCCCCCCCCCCOC(=O)CCCCCN(CCN(CCO)CCCCCOC(=O)N(CCCCCCCC)CCCCCCCC)C1CCCCC1 [Compound 99]
4 |  | 0.043 | 82.04 | 93.64 | 7.38 | 1.03 | 0.17 |  |  |  | CCCCCCCCC(CCCCCCCC)CNC(=O)CCCCCN1CCC(N(CCO)CCCCC(COC(=O)CCCCCCC)COC(=O)CCCCCCC)CC1 [Compound 218]
5 |  |  |  |  |  |  |  | 69.39 | 61.63 | 52.47 | CCCCC/C=C\C/C=C\CCCCCCCCC(CCCCCCCC/C=C\C/C=C\CCCCC)OC(=O)CCCN(C)C [MC3, dilinoleylmethyl-4-dimethylaminobutyrate]
6 |  | 0.05 | 67.96 | 92.74 | 48.44 | 50.42 | 50.83 |  |  |  | CCCCCCCCC(CCCCCCCC)CC(=O)NCCCCCN(CCN(CCO)CCCCCOC(=O)CC(CCCCCCCC)CCCCCCCC)C1CCCCCC1 [Compound 74]
7 |  | 0.15 | 94.56 | 94.84 | 7.87 | 1.98 | 0.52 |  |  |  | CCCCCCCCC(CCCCCCCC)COC(=O)CCCCCN(CCCCN(CCO)CCCCC(COC(=O)CCCCCCC)COC(=O)CCCCCCC)C1CCC1 [Compound 220]
8 | 6.114 | 0.089 | 67.63 | 95.6 |  |  |  |  |  |  | CCCCCCCCC(CCCCCCCC)COC(=O)CCCCCN(CCC)CCN(CCCCCC(=O)OCC(CCCCCCCC)CCCCCCCC)C1CCC(O)CC1 (centres unmarked) [Compound 52]
9 | 6.657 | 0.071 | 87.97 | 87.94 |  |  |  |  |  |  | CCCCCCCCC(CCCCCC)CNC(=O)CCCCCN(CCOCCO)CCN(CCCCC(COC(=O)CCCCCCC)COC(=O)CCCCCCC)C1CCCCCC1 (centres unmarked) [Compound 207]
10 | 6.134 | 0.067 | 55.24 | 88.2 |  |  |  |  |  |  | C/C=C/CN(CCCCCC(=O)OCC(CCCCCCCC)CCCCCCCC)CCN(CCO)CCCCCC(=O)OCC(CCCCCCCC)CCCCCCCC [Compound 41]
